In paper PMC4583449, “Characterisation of (R)-2-(2-Fluorobiphenyl-4-yl)-N-(3-Methylpyridin-2-yl)Propanamide as a Dual Fatty Acid Amide Hydrolase: Cyclooxygenase Inhibitor” (PLoS ONE, 2015):
Several values for one entry are separate records, joined by “and”; a condition that tells them apart may be missing. Identical values can stand only once. Like-named read-outs stand apart in the source and are kept apart here.

Columns and labels:
mouse brain FAAH = target: T1, mouse brain FAAH (Mus musculus, UniProt O08914); assay: FAAH assay, [3H]AEA hydrolysis in mouse brain homogenates; format: biochemical; settings: 0.5 μM [3H]AEA; read-out: IC50 inhibition of [3H]AEA hydrolysis in mouse brain homogenates
T1 construct: Brains from male B6CBAF1/J mice, stored at -80°C, were thawed, weighed and homogenized in cold buffer; from tissue; host or cells: brain of male B6CBAF1/J mice (washed membrane pellet homogenate)
T1 sequence (O08914 1-579): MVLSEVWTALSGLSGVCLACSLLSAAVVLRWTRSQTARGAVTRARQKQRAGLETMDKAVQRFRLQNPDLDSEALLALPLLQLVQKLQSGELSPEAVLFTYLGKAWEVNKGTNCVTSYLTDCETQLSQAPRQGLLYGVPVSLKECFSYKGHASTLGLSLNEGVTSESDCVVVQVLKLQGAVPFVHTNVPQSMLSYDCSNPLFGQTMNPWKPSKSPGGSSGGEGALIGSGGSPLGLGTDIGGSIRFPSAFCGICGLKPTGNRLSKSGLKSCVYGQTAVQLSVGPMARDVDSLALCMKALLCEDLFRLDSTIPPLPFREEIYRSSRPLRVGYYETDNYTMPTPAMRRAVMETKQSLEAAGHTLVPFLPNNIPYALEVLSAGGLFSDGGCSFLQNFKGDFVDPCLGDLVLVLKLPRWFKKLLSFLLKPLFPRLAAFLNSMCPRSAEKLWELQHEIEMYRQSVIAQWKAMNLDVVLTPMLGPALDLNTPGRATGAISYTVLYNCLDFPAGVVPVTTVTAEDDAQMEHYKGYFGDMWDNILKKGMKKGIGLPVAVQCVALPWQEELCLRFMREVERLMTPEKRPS
Experimental: Brains from male B6CBAF1/J mice, stored at -80°C, were thawed, weighed and homogenized in cold buffer (20 mM HEPES, 1 mM MgCl2 pH 7.0). Homogenates were centrifuged (35,000 g at 4°C for 20 min) before the pellet was resuspended in cold homogenization buffer. Centrifugation and resuspension was repeated twice. The suspension was incubated at 37°C for 15 min to degrade any endogenous substrate able to interfere with the FAAH assay. After centrifugation (35,000 g at 4°C for 20 min), the pellet was resuspended in cold buffer (50 mM Tris-HCl, 1mM EDTA, 3 mM MgCl2, pH 7.4). The protein concentration was determined according to the Bradford assay after which the samples were frozen in aliquots at -80°C. Ethical permission for the animal experiments was obtained from the local animal research ethical committee (Umeå Ethical Committee for Animal Research, Umeå, Sweden). FAAH was assayed using the method of Boldrup et al., whereby homogenates (0.3 μg protein / assay) in assay buffer (10 mM Tris-HCl, 1mM EDTA, pH 7.4), test compounds and substrate ([^3H]AEA in 10 mM Tris-HCl, 1mM EDTA, pH 7.4 containing 10 mg/ml fatty acid-free bovine serum, assay concentration 0.5 μM unless otherwise stated) were incubated for 10 min at 37°C. Thereafter, 400 μL activated charcoal (80 μL activated charcoal + 320 μL 0.5 M HCl) was added and the samples were placed on ice and centrifuged at 2500 rpm for 10 min. Aliquots (200 μL) of the supernatant was analyzed for tritium content by liquid scintillation spectroscopy with quench correction.

human recombinant COX-2 = target: T2, human recombinant COX-2 (Homo sapiens, UniProt P35354); assay: COX-2 inhibition, oxygraphic method (oxygen electrode); format: biochemical; settings: no preincubation phase, approximate, from initial velocities
T2 construct: purchased Cayman Chemical Co. 60122
T2 sequence (P35354 18-604): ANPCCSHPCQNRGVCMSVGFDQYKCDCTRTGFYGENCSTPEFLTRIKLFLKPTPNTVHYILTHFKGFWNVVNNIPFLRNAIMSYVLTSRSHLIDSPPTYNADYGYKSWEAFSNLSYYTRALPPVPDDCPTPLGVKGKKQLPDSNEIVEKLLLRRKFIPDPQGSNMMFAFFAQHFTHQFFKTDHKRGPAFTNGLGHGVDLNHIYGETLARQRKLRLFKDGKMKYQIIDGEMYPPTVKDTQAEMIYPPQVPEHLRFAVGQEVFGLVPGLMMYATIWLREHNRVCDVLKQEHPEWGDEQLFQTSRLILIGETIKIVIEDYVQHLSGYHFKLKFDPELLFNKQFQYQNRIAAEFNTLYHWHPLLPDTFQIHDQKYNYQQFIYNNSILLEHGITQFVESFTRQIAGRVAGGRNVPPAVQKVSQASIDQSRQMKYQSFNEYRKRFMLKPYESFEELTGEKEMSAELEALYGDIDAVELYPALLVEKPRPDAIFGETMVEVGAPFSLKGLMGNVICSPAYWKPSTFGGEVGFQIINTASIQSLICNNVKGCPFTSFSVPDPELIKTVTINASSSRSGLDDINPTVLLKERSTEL
Experimental: (§1) The assay was performed according to Meade et al. with minor modifications. An oxygen electrode chamber with integral stirring (Oxygraph System, Hansatech Instruments, King´s Lynn, U.K.) was calibrated daily to ambient temperature and air pressure. The assay buffer contained 0.1 M Tris-HCl buffer pH 7.4, 1 μM haematin, 2 mM phenol, 5 mM EDTA, 10 μM substrate (arachidonic acid or 2-AG) (final assay volume was 2 ml). After addition of (R)- or (S)-Flu-AM1 dissolved in ethanol (final assay concentration 1%), a baseline was established for 5 min before initiation of reaction by addition of 200 units ovine COX-1 or human recombinant COX-2. The change in oxygen consumption as a measurement of enzyme activity was monitored for approximately 5 min.

rat brain FAAH = target: T3, rat brain FAAH (Rattus norvegicus, UniProt P97612); assay: [3H]AEA hydrolysis in rat brain homogenates; format: biochemical; settings: current authors, unpublished data; read-out: IC50 inhibition of [3H]AEA hydrolysis in rat brain homogenates
T3 construct: the racemate was studied in rat brain homogenates, whereas mouse brain homogenates were used here; from tissue; host or cells: rat brain homogenates
T3 sequence (P97612 1-579): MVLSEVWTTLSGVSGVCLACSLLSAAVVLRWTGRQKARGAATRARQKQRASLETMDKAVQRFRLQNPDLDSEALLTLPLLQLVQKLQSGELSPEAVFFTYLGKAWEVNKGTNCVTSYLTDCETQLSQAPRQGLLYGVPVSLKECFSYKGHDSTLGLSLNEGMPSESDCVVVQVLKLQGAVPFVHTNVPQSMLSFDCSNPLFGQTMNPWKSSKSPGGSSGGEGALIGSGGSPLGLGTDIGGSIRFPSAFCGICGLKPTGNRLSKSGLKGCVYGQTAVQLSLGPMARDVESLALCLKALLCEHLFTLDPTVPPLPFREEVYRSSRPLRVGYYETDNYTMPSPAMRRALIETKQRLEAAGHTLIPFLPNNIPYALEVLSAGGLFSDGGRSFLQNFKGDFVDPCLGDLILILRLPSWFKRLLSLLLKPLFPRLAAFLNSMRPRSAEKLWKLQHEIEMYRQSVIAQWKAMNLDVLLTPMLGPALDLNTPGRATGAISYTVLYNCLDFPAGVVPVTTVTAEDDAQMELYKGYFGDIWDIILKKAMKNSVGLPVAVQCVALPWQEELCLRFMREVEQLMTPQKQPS

ovine COX-1 = target: T4, ovine COX-1 (Ovis aries, UniProt P05979); assay: COX-1 inhibition, oxygraphic method (oxygen electrode); format: biochemical; settings: 10 μM arachidonic acid; no preincubation phase; approximate, from initial velocities
T4 construct: purchased Cayman Chemical Co. 60100
T4 sequence (P05979 25-600): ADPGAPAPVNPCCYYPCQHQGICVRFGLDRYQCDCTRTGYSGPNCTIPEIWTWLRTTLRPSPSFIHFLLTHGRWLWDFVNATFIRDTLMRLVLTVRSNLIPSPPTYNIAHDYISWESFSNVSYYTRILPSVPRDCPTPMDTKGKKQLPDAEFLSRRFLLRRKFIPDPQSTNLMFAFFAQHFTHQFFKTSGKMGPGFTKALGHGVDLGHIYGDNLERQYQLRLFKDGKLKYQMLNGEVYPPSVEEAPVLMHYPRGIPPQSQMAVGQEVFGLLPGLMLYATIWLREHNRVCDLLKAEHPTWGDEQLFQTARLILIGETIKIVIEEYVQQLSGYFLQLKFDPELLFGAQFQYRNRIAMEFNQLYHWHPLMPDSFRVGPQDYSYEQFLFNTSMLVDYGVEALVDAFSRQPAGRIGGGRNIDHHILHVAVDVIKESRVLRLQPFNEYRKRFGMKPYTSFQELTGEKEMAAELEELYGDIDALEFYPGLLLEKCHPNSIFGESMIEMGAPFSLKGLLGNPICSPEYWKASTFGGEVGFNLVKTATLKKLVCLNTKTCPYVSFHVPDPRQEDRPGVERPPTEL
Experimental: as §1

RAW 264.7 cells [1] = assay: Lipid profile (prostaglandins, 2-AG, AEA and related lipids) of RAW 264.7 cell extracts, UPLC-MS/MS; format: cell-based, mouse; settings: 30 min
RAW 264.7 cells [2] = assay: [3H]AEA hydrolysis by intact RAW 264.7 cells; format: cell-based, mouse; settings: LPS + INF-γ-treated cells; 100 nM [3H]AEA, 60 min; URB597 1 μM, flurbiprofen and (R)-Flu-AM1 10 μM

Compound	IC50 (mouse brain FAAH) [nM]	IC50 (human recombinant COX-2; 10 μM 2-AG, read-out: IC50 COX-2 (2-AG))	IC50 (human recombinant COX-2; 10 μM arachidonic acid, read-out: IC50 COX-2 (arachidonic acid))	IC50 (rat brain FAAH) [nM]	IC50 (ovine COX-1)	Effect on basal and LPS + INF-γ-stimulated PGD2 and PGE2 production (RAW 264.7 cells [1]; 10 μM)	Effect on levels of 2-AG in the cell extracts (RAW 264.7 cells [1]; 10 μM, unstimulated and LPS + INF-γ-treated)	Effect on levels of AEA and related N-acylethanolamines in the cells (RAW 264.7 cells [1]; LPS + INF-γ-treated, ionomycin (5 μM) treated cells, URB597 1 μM, flurbiprofen and (R)-Flu-AM1 10 μM)	Effect on hydrolysis of exogenous [3H]AEA by intact cells (RAW 264.7 cells [2])
Cc1cccnc1NC(=O)[C@@H](C)c1ccc(-c2ccccc2)c(F)c1 [(S)-Flu-AM1]	11000	700 nM and ~700 nM	10000 nM and ~10000 nM	990	3000 nM and ~3000 nM	–	–	–	–
CC(C(=O)O)c1ccc(-c2ccccc2)c(F)c1 (stereo not drawn) [Flurbiprofen, flurbiprofen, reference compound]	–	–	–	–	–	blocked	not affected	did not affect	would not be expected, and this was found to be the case
